# Test results from patent US5395609A, “Synthetic peptides for use in tumor detection” (Antisoma Limited, priority 1989, dated 1995).
# No end group written: not given here.
# Tested on: metastatic lesions of pelvic melanoma
# Assay: Imaging of metastatic lesions in a human patient with pelvic melanoma after intravenous radiolabelled peptide
# Assay type: in vivo
# Protocol: 100 micrograms of the peptide […] labelled with technetium were administered intravenously as one single dose to a human patient with a pelvic melanoma which has metastrasised to the liver.
sequence,measurement,setting,value
RGDSCRGDSY labelled with technetium: peptide RGDSCRGDSY labelled with technetium (also: labelled with technetium),"uptake of radiolabelled peptide at metastatic lesions, early view","100 micrograms i.v. single dose, FIG. 2",various sites of uptake (arrow) which correspond to the known metastatic lesions
same,retention of radiolabelled peptide by metastatic lesions,"100 micrograms i.v., one hour later, FIG. 3",retention of the radiolabelled peptide by the metastatic lesions
